# Reference: US6818226B2, “Dermal penetration enhancers and drug delivery systems involving same” (ACRUX DDS Pty. Ltd., priority 1996, dated 2004)
# Like-named read-outs stand apart in the source and are kept apart here. Marks after values point to notes of the source that are not given here.
# What was measured:
# [1] = Flux of oestradiol, progesterone, norethisterone acetate, ibuprofen, flurbiprofen across shed snake skin, 5 microL/cm^2 (Example 11); format: in vitro ADME, Children's python; details: for Enhancement ratio: 24 h
# Excerpt: (§1) Dermatol., 94; 235-240, 1990.
# (§2) Degassing was repeated three times.
# In order to further illustrate the present invention and the advantages thereof, the following specific examples are given, it being understood that same are intended only as illustrative and in nowise limitative. In the examples, the effectiveness of the dermal penetration enhancers are illustrated by measuring the skin penetration of physiologically active agents. Also, the skin penetration of the dermal penetration enhancers of this invention were compared with that of other penetration enhancers as well as formulations of bio-affecting agents with common adjuvants. The comparisons made generally consisted of measuring the relative penetration through shed snake skin of the various formulations. In the examples, the in vitro skin penetration studies were performed using the same in vitro diffusion cell apparatus as previously mentioned.
# The two penetration enhancers given as examples are octyl dimethyl PABA and Azone. Both penetration enhancers were again at a concentration of 8% v/v within the formulations and control was without a penetration enhancer. A concentration of 2% w/v oestradiol was used in the formulation and detection wavelength was 212 nm and the mobile phase consisted of acetonitrile:water (40%:60%).
# [2] = hairless, mouse, 2 % v/v
# [3] = Children's python, 24 h, 2 % v/v
# [4] = test system: full-thickness guinea pig skin in vivo; assay: Melanin content of guinea pig skin in vivo after topical hydroquinone solution (Example 4); details: for Enhancement ratio (enhancer/control): melanin content
# Procedure: Melanin content was measured by reflectance absorbance from the treated and untreated skin according to the methods outlined in the PhD thesis of Anderson, J. R., titled The Development of Techniques for Measuring the Bioavailability of Topical Depigmenting Agents (School of Pharmaceutics, Victorian College of Pharmacy Ltd., Parkville, Victoria, Australia, Dec., 1985).
# [5] = Flux of oestradiol, progesterone, norethisterone acetate, ibuprofen, flurbiprofen across shed snake skin, 5 microL/cm^2 (Example 11); format: in vitro ADME; details: Children's python
# [6] = format: physicochemical
# Excerpt: Japanese patent JP 61-268631 to Showa Denko KK discloses dermal penetration enhancers suitable for use with water-soluble drugs. The dermal penetration enhancers disclosed include 1-5 carbon fatty acid esters of para-aminobenzoic acid but their chemical structures are quite distinct from the compounds used in the present invention, and the physicochemical properties of the 1-5 carbon fatty acid esters of para-aminobenzoic acid are markedly different to those of the present invention. For example the octanol-water partition coefficients for all the 1-5 carbon fatty acid esters of para-aminobenzoic acid are at least 200 fold lower than those of the present invention. Also the preferred dermal penetration enhancer disclosed in JP 61-268631 is the 2 carbon fatty acid ester of para-aminobenzoic acid (or Benzocaine) which has an octanol-water partition coefficient which is more than 8000 fold lower than those of the present invention. Unlike those of the present invention, the preferred dermal penetration enhancer disclosed in JP 61-268631 has significant pharmacological properties in that it is a local anaesthetic, which has also been reported to cause irritant and allergic skin reactions. […]
# [7] = Hydroquinone penetration across full-thickness guinea pig skin in vitro from gel, Franz cells (Example 4)
# Excerpt: Adult guinea pigs of either sex (weight range 500 g-750 g) were used. The hair on the back flank and back was removed with the aid of depilatory wax (Arielle™) under halothane anaesthesia. Seven days later, after the stratum corneum had completely regenerated, the guinea pigs were killed and the skin removed and placed on a chilled slab. […] For in vivo experiments the guinea pigs were housed in individual cages and the topical hydroquinone formulations were applied to the hair-free areas. Each guinea pig received the test or control formulation on the corresponding contralateral site, thus allowing each animal to act as its own control.
# Radiolabelled hydroquinone (C14, Amersham) was added to each of the topical formulations. At specified time intervals 200 microL of receptor solution was withdrawn with a micro-pipette and replaced with 200 microL of fresh normal saline. The 200 microL samples were added to 800 microL of water which in turn was added to 10 mL of scintillation cocktail consisting of Toluene™ 1L, PPO 5g, POPOP 0.1 g and Triton X™ 500 mL. The scintillation counting was performed on a Packard Tricarb 460C instrument. Disintegrations per minute were determined by an external standard procedure and calculated by the data system of the instrument.
# [8] = Ibuprofen penetration across full-thickness hairless mouse skin in vitro (Example 5); details: control, no enhancer; 2% w/v ibuprofen in 70% aqueous ethanol
# [9] = format: in vitro ADME, Children's python
# Excerpt: as §1, §2
# The control formulation contained no penetration enhancer. The detection wavelength was 242 nm and the mobile phase consisted of acetonitrile:water (35%:65%).
# [10] = Diffusion of indomethacin (Indospray) across snake skin after pretreatment with Octyl dimethyl PABA (Example 2); format: in vitro ADME; details: Children's python, 24 h
# Procedure: as §1, §2
# 10 microL of increasing concentrations of Octyl dimethyl PABA in absolute ethanol were applied 30 mins prior to the application of the indomethacin formulation. The control experiment involved application of 10 microL of absolute ethanol alone 30 mins prior to the application of the indomethacin formulation. Samples were assayed according to the method described previously.
# [11] = Ketoprofen flux from transdermal patch across snake skin (Example 9); format: in vitro ADME, Children's python; details: control transdermal patch without enhancer, over 24 h
# Procedure: as §1, §2
# The patches were prepared by dissolving 300 mg of ketoprofen, 400 mg of penetration enhancer, 300 mg of polyethylene glycol 400 and 800 mg of hydroxypropylcellulose in 20 mL of ethanol and stirring until viscous. This was then poured onto a clean glass plate and dried at 40 degrees Celsius for 1 h. The thickness of this film was approximately 1 mm. Circles of 0.8 cm^2 were then cut out of this matrix and stuck onto the middle of 2.0 cm^2 circles of OPSITE™ adhesive bandage. This patch was then stuck onto 2.0 cm^2 pieces of snake skin and placed in the diffusion cell. The ketoprofen content of each patch formulation was determined by HPLC in triplicate and found to be 6.99+/−0.30 mg/cm^2 and 6.76+/−0.24 mg/cm^2, for the control and octyl salicylate patches respectively (mean content+/−std error, […]).
# [12] = Diffusion of ketoprofen across snake skin, enhancer included in the formulation (Example 3); details: control, no enhancer; 2% w/v ketoprofen in 70% aqueous ethanol; 24 h
# [13] = Diffusion of ketoprofen across shed snake skin after pretreatment with enhancer (Example 1); details: control, no enhancer: 70% aqueous ethanol alone for 2 hours before 2% ketoprofen; 24 h
# [14] = in vivo, Bartek et al. 1972; cited from earlier work
# [15] = Testosterone clearance after intravenous bolus in pigs (Example 13); format: in vivo, domestic weanling pig; details: pig, plasma, bolus dose of intravenous testosterone
# [16] = Testosterone penetration across dermatomed neonate porcine skin in vitro (Example 6); format: in vitro ADME; details: control, no enhancer; 12% w/v testosterone in absolute ethanol
# Excerpt: as §2
# [17] = Testosterone flux across shed snake skin, finite dose 5 microL/cm^2 (Example 10); details: control, no enhancer, 12% w/v testosterone in absolute ethanol
# Procedure: as §1, §2
# The volume of each formulation applied to the skin was 5 microL/cm^2. Each formulation contained 12% w/v testosterone in absolute ethanol. The dose was applied with a GC syringe.
# Samples were assayed for testosterone by HPLC as shown before in Example 6.
# [18] = Children's python, 24 h, 8 % v/v
structure (smiles),measurement,setting,value
"CCCCCCCCCCCCN1CCCCCC1=O [Azone, 1-dodecal-azacycloheptane-2-one]",Mean flux +/− std error of oestradiol,"[1]; Children's python, 8 % v/v",0.40 +/− 0.05 microg/cm^2 · h
same,Enhancement ratio,"[1]; Children's python, 8 % v/v",5.4
same,median amount of ibuprofen penetrated after 12 hours,[2],1036* μg/cm^2
same,median amount of ibuprofen penetrated after 24 hours,[2],2684* μg/cm^2
same,Enhancement ratio,[3],3.6
same,Melanin content,"[4]; HQ 2% w/v with enhancer 2% v/v, finite dose solution 5 microL/cm^2",39.5 ± 9.6 μg/cm^2
same,Enhancement ratio (enhancer/control),[4]; HQ 2% w/v with enhancer 2% v/v versus HQ 2% w/v control,0.93
same,Mean flux +/− std error of flurbiprofen,[5]; 8 % v/v,2.05 +/− 0.42 microg/cm^2 · h
same,Mean flux +/− std error of ibuprofen,[5]; 8 % v/v,13.53 +/− 1.38 microg/cm^2 · h
same,Mean flux +/− std error of norethisterone acetate,[5]; 8 % v/v,0.16 +/− 0.02 microg/cm^2 · h
same,Mean flux +/− std error of progesterone,"[5]; 24 h, 8 % v/v",2.17 +/− 0.33 microg/cm^2 · h
"CCOC(=O)c1ccc(N)cc1 [Benzocaine, 2 carbon fatty acid ester of para-aminobenzoic acid]","octanol-water partition coefficient, fold lower than those of the present invention",[6],more than 8000 fold
"CC(C(=O)O)c1ccc(-c2ccccc2)c(F)c1 (centres unmarked) [Flurbiprofen, flurbiprofen]",Mean flux +/− std error of flurbiprofen,[5]; 20 %,0.81 +/− 0.05 microg/cm^2 · h
"Oc1ccc(O)cc1 [HQ, hydroquinone]",Flux of hydroquinone,"[7]; control gel, no enhancer, 15 mg/cm^2",0.35 ± 0.10 % dose/h
same,Melanin content,"[4]; HQ 1% w/v control, no enhancer, 5 microL/cm^2",57.5 ± 3.7 μg/cm^2
same,Melanin content,"[4]; HQ 2% w/v control, no enhancer, 5 microL/cm^2",36.8 ± 8.1 μg/cm^2
"CC(C)Cc1ccc(C(C)C(=O)O)cc1 (centres unmarked) [Ibuprofen, ibuprofen]",median amount of ibuprofen penetrated after 12 hours,[8],474 μg/cm^2
same,median amount of ibuprofen penetrated after 24 hours,[8],1819 μg/cm^2
same,Mean flux +/− std error of ibuprofen,[5]; 20 %,5.39 +/− 0.50 microg/cm^2 · h
"C#C[C@]1(OC(C)=O)CC[C@H]2[C@@H]3CCC4=CC(=O)CC[C@@H]4[C@H]3CC[C@@]21C [Norethisterone acetate, norethisterone acetate]",Mean flux +/− std error of norethisterone acetate,"[5]; 24 h, 6 % w/v",0.14 +/− 0.02 microg/cm^2 · h
"CCCCC(CC)COC(=O)c1ccc(N(C)C)cc1 (centres unmarked) [Octyl dimethyl PABA, Octyl dimethyl-para-aminobenzoate]",Mean flux +/− std error of oestradiol,"[1]; Children's python, 8 % v/v",0.26 +/− 0.01 microg/cm^2 · h
same,Enhancement ratio,"[1]; Children's python, 8 % v/v",2.4
same,median amount of ibuprofen penetrated after 12 hours,[2],1123* μg/cm^2
same,median amount of ibuprofen penetrated after 24 hours,[2],2981* μg/cm^2
same,Enhancement ratio,[9]; [18],5.8
same,Mean flux +/− std error of hydrocortisone,[9]; [18],0.79 +/− 0.06 microg/cm^2.h
same,Enhancement ratio,[3],3.5
same,Enhancement ratio (enhancer/control),"[7]; both, guinea pig, 3 % v/v",2.9
same,Melanin content,"[4]; HQ 1% w/v with enhancer 2% v/v, finite dose solution 5 microL/cm^2",38.2 ± 3.1 μg/cm^2
same,Enhancement ratio (enhancer/control),[4]; HQ 1% w/v with enhancer 2% v/v versus HQ 1% w/v control,1.5
same,Enhancement ratio,[10]; 1.6 % v/v,1.2
same,Mean flux +/− std error of indomethacin,[10]; 1.6 % v/v,1.43 +/− 0.14 microg.cm^2.h
same,Enhancement ratio,[10]; 3.2 % v/v,1.4
same,Mean flux +/− std error of indomethacin,[10]; 3.2 % v/v,1.71 +/− 0.32 microg.cm^2.h
same,Enhancement ratio,[10]; 6.4 % v/v,1.6
same,Mean flux +/− std error of indomethacin,[10]; 6.4 % v/v,1.94 +/− 0.09 microg.cm^2.h
same,Mean flux +/− std error of flurbiprofen,[5]; 8 % v/v,2.91 +/− 0.30 microg/cm^2 · h
same,Mean flux +/− std error of ibuprofen,[5]; 8 % v/v,13.16 +/− 1.21 microg/cm^2 · h
same,Mean flux +/− std error of norethisterone acetate,[5]; 8 % v/v,1.85 +/− 0.07 microg/cm^2 · h
same,Mean flux +/− std error of progesterone,"[5]; 24 h, 8 % v/v",0.95 +/− 0.03 microg/cm^2 · h
"C[C@]12CC[C@@H]3c4ccc(O)cc4CC[C@H]3[C@@H]1CC[C@@H]2O [Oestradiol, oestradiol]",Mean flux +/− std error of oestradiol,"[1]; control without penetration enhancer, 2% w/v oestradiol",0.06 +/− 0.01 microg/cm^2 · h
CCCCC(CC)COC(=O)C=Cc1ccc(OC)cc1 (centres unmarked) [PARSOL ® MCX],Flux of hydroquinone,"[7]; HQ gel 15 mg/cm^2 with enhancer (PARSOL MCX 3% v/v, ESCALOL 507 3% v/v, AZONE 5% v/v as in row)",0.93 ± 0.19 % dose/h
same,Enhancement ratio (enhancer/control),"[7]; hydroquinone flux from gel, guinea pig skin in vitro",2.7
"CC(=O)[C@H]1CC[C@H]2[C@@H]3CCC4=CC(=O)CC[C@]4(C)[C@H]3CC[C@]12C [Progesterone, progesterone]",Mean flux +/− std error of progesterone,"[5]; 24 h, 6 % w/v",0.40 +/− 0.02 microg/cm^2 · h
C[C@]12CCC(=O)C=C1CC[C@@H]1[C@@H]2[C@@H](O)C[C@@]2(C)[C@H]1CC[C@]2(O)C(=O)CO [hydrocortisone],Mean flux +/− std error of hydrocortisone,"[9]; control, no enhancer, 1% w/v hydrocortisone in 70% aqueous ethanol",0.14 +/− 0.04 microg/cm^2.h
CC(C(=O)O)c1cccc(C(=O)c2ccccc2)c1 (centres unmarked) [ketoprofen],Mean flux +/− std error of ketoprofen,[11],0.47 ± 0.04 microg/cm^2.h
same,Mean flux +/− std error of ketoprofen,[12],0.78 ± 0.07 microg/cm^2.h
same,Mean flux +/− std error of ketoprofen,[13],0.96 ± 0.18 microg/cm^2.h
C[C@]12CC[C@H]3[C@@H](CCC4=CC(=O)CC[C@@]43C)[C@@H]1CC[C@@H]2O [testosterone],"permeability in human skin compared with pig skin, fold lower",[14],2.2 fold
same,clearance,[15],11.1 mL/min/kg
same,mean amount of testosterone penetrated after 4 hours,[16],4 ± 1 μg/cm^2
same,mean amount of testosterone penetrated after 24 hours,[16],13 ± 2 μg/cm^2
same,Mean flux +/− std error of testosterone,[17],0.70 +/− 0.03 microg/cm^2.h
